Reference: patent US20210363213A1, “GLUCAGON-GLP-1-GIP TRIPLE AGONIST COMPOUNDS” (priority 2013, published 2021)
Numbered stars: 1 amine (or outer) side, 2 acyl side, 3 side chain; on linkers, the order of the positions; unused ones are H or OH. Square brackets hold non-standard residues; d marks the D form. Side chains are listed from the residue outwards. Peptide text beside a SMILES is read from it. * marks the point of attachment. C18 diacid = O=C(O)CCCCCCCCCCCCCCCCC(=O)*; γGlu = O=C(O)[C@H](CCC(=O)[*:2])N[*:1]; Stearoyl = CCCCCCCCCCCCCCCCCC(=O)*; AEEA = NCCOCCOCC(=O)O; Aib = CC(C)(N)C(=O)O

Biological target: T1, human GIP R (Homo sapiens, UniProt P48546)
T1 construct: expressed in transfected cells
T1 sequence (P48546 22-466): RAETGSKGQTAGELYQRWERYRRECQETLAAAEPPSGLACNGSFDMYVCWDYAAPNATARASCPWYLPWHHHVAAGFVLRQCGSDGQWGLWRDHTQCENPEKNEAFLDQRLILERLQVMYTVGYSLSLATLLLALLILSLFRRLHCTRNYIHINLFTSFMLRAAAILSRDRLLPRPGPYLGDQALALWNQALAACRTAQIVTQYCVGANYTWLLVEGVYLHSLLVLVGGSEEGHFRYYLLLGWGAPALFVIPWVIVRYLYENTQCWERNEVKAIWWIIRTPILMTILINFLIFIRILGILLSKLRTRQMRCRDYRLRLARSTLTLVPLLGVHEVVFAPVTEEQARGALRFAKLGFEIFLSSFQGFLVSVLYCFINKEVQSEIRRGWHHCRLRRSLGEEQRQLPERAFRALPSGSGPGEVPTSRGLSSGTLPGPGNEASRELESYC
Assay: Human GIP receptor (GIP-R) activity assay, cAMP induction (AlphaScreen) in HEK293 cells
Assay type: cell-based
Conditions: Table 2b (most comprehensive data); average EC50; cAMP in HEK293 cells expressing human GIP R; read-out: GIP R (EC50 in nM)
Experimental: (§1) Briefly, HEK293 cells expressing the human GIP R, GLP-1 R or GCG R (stable cell lines generated through transfection of the cDNA for human GIP R, GLP-1 R or GCG R and selection of stable clones) were seeded at 30,000 cells/well in 96-well microtiter plates coated with 0.01% poly-L-lysine, and grown for 1 day in culture in 200 μl growth medium (DMEM, 10% FCS, Penicillin (100 IU/ml), Streptomycin (100 μg/ml)). On the day of analysis, growth medium was removed and the cells were washed once with 150 μl Tyrode's buffer (Tyrode's Salts (9.6 g/I), 10 mM HEPES, pH 7.4). […] The Assay buffer was removed and cells are lysed in 80 μl Lysis buffer (0.1% w/v BSA, 5 mM HEPES, 0.3% v/v Tween-20) per well. From each well 10 μl of lysed cells were transferred to a 384-well plate and mixed with 15 μl bead-mix (1 Unit/15 μl anti-cAMP Acceptor Beads, 1 Unit/15 μl Donor Beads, and 1 Unit/15 μl Biotinylated cAMP in Assay Buffer). The plates were mixed and incubated in the dark for an hour at room temperature before measuring using an Envision™ plate reader (Perkin-Elmer).
(§2) The resulting cAMP curves were plotted as absolute cAMP concentrations (nM) over log (test compound concentration) and analyzed using the curve fitting program XLfit.
(§3) Parameters calculated to describe both the potency as well as the agonistic activity of each test compound on the receptors were:
(§4) EC50, a concentration resulting in a half-maximal elevation of cAMP levels, reflecting the potency of the test compound.

SMILES	EC50 [nM]
CC[C@H](C)[C@H](NC(=O)[C@H](CO)NC(=O)[C@H](Cc1ccc(O)cc1)NC(=O)[C@H](CC(=O)O)NC(=O)[C@H](CO)NC(=O)[C@@H](NC(=O)[C@H](Cc1ccccc1)NC(=O)[C@@H](NC(=O)CNC(=O)[C@H](CCC(N)=O)NC(=O)C(C)(C)NC(=O)[C@@H](N)Cc1ccc(O)cc1)[C@@H](C)O)[C@@H](C)O)C(=O)N[C@@H](Cc1ccc(O)cc1)C(=O)N[C@@H](CC(C)C)C(=O)N[C@@H](CC(=O)O)C(=O)N[C@@H](CCCCN)C(=O)N[C@@H](CCCCNC(=O)COCCOCCNC(=O)COCCOCCNC(=O)CC[C@H](NC(=O)CCCCCCCCCCCCCCCCC(=O)O)C(=O)O)C(=O)N[C@@H](C)C(=O)N[C@@H](CCC(N)=O)C(=O)N[C@@H](CCCNC(=N)N)C(=O)N[C@@H](C)C(=O)N[C@@H](Cc1ccccc1)C(=O)N[C@H](C(=O)N[C@@H](CCC(=O)O)C(=O)N[C@@H](Cc1c[nH]c2ccccc12)C(=O)N[C@@H](CC(C)C)C(=O)N[C@@H](CC(C)C)C(=O)N[C@@H](C)C(=O)N[C@@H](CCC(N)=O)C(=O)NCC(=O)N1CCC[C@H]1C(=O)N[C@@H](CO)C(=O)N[C@@H](CO)C(=O)NCC(=O)N[C@@H](C)C(=O)N1CCC[C@H]1C(=O)N1CCC[C@H]1C(=O)N1CCC[C@H]1C(=O)N[C@@H](CO)C(N)=O)C(C)C [Compound 33] (H-Y[Aib]QGTFTSDYSIYLDKK([AEEA-AEEA-γGlu-C18 diacid])AQRAFVEWLLAQGPSSGAPPPS-NH2)	0.0099
CCCCCCCCCCCCCCCC(=O)N[C@@H](CCC(=O)NCCCC[C@H](NC(=O)[C@H](CCCCN)NC(=O)[C@H](CCC(=O)O)NC(=O)[C@H](CC(C)C)NC(=O)[C@H](Cc1ccc(O)cc1)NC(=O)[C@@H](NC(=O)[C@H](CO)NC(=O)[C@H](Cc1ccc(O)cc1)NC(=O)[C@H](CC(=O)O)NC(=O)[C@H](CO)NC(=O)[C@@H](NC(=O)[C@H](Cc1ccccc1)NC(=O)[C@@H](NC(=O)CNC(=O)[C@H](CCC(N)=O)NC(=O)C(C)(C)NC(=O)[C@@H](N)Cc1ccc(O)cc1)[C@@H](C)O)[C@@H](C)O)[C@@H](C)CC)C(=O)N[C@@H](C)C(=O)N[C@@H](C)C(=O)N[C@@H](CCCCN)C(=O)N[C@@H](CCC(=O)O)C(=O)N[C@@H](Cc1ccccc1)C(=O)N[C@H](C(=O)N[C@@H](CCC(=O)O)C(=O)N[C@@H](Cc1c[nH]c2ccccc12)C(=O)N[C@@H](CC(C)C)C(=O)N[C@@H](CC(C)C)C(=O)N[C@@H](CO)C(=O)N[C@@H](C)C(=O)NCC(=O)N1CCC[C@H]1C(=O)N[C@@H](CO)C(=O)N[C@@H](CO)C(=O)NCC(=O)N[C@@H](C)C(=O)N1CCC[C@H]1C(=O)N1CCC[C@H]1C(=O)N1CCC[C@H]1C(=O)N[C@@H](CO)C(N)=O)C(C)C)C(=O)O [Compound 32] (HELM PEPTIDE1{Y.[Aib].Q.G.T.F.T.S.D.Y.S.I.Y.L.E.K.K.A.A.K.E.F.V.E.W.L.L.S.A.G.P.S.S.G.A.P.P.P.S.[am]}|PEPTIDE2{[CCCCCCCCCCCCCCCC(=O)[*:2]].[gGlu]}$PEPTIDE1,PEPTIDE2,17:R3-2:R2$$$V2.0)	0.04

Biological target: T2, human GLP-1 R (Homo sapiens, UniProt P43220)
T2 construct: expressed in transfected cells
Assay: Human GLP-1 receptor (GLP-1-R) activity assay, cAMP induction (AlphaScreen) in HEK293 cells
Assay type: cell-based
Conditions: Table 2b (most comprehensive data); average EC50; cAMP in HEK293 cells expressing human GLP-1 R; read-out: GLP1 R (EC50 in nM)
Experimental: as §1, §2, §3, §4

T2 sequence (P43220 24-463): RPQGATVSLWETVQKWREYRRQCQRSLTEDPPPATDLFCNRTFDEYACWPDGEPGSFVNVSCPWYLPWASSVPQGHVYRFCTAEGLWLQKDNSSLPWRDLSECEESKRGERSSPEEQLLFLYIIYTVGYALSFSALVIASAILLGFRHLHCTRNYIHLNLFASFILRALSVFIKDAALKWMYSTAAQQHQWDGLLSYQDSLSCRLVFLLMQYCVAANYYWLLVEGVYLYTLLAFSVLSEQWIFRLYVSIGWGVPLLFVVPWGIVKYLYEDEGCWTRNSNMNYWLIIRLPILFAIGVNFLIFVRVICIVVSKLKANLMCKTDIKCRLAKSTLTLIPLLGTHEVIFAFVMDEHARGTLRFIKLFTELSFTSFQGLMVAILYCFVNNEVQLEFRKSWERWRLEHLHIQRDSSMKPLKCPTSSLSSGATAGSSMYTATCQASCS

SMILES	EC50 [nM]
CC(C)C[C@H](NC(=O)[C@H](C)NC(=O)[C@H](CCCCN)NC(=O)[C@H](CO)NC(=O)[C@H](Cc1ccc(O)cc1)NC(=O)[C@H](CC(=O)O)NC(=O)[C@H](CO)NC(=O)[C@@H](NC(=O)[C@H](Cc1ccccc1)NC(=O)[C@@H](NC(=O)CNC(=O)[C@H](CCC(N)=O)NC(=O)C(C)(C)NC(=O)[C@@H](N)Cc1ccc(O)cc1)[C@@H](C)O)[C@@H](C)O)C(=O)N[C@@H](CC(=O)O)C(=O)N[C@@H](CCC(=O)O)C(=O)N[C@@H](CCCCN)C(=O)N[C@@H](C)C(=O)N[C@@H](C)C(=O)N[C@@H](CCCCN)C(=O)N[C@@H](CCC(=O)O)C(=O)N[C@@H](Cc1ccccc1)C(=O)N[C@H](C(=O)N[C@@H](CCC(=O)O)C(=O)N[C@@H](Cc1c[nH]c2ccccc12)C(=O)N[C@@H](CC(C)C)C(=O)N[C@@H](CC(C)C)C(=O)N[C@@H](CO)C(=O)N[C@@H](C)C(N)=O)C(C)C [Compound 21] (HELM PEPTIDE1{Y.[Aib].Q.G.T.F.T.S.D.Y.S.K.A.L.D.E.K.A.A.K.E.F.V.E.W.L.L.S.A.[am]}$$$$V2.0)	0.015
CC(C)C[C@H](NC(=O)[C@H](CC(C)C)NC(=O)[C@H](Cc1c[nH]c2ccccc12)NC(=O)[C@H](CCC(=O)O)NC(=O)[C@@H](NC(=O)[C@H](Cc1ccccc1)NC(=O)[C@H](CCC(=O)O)NC(=O)[C@H](CCCCN)NC(=O)[C@H](CCC(N)=O)NC(=O)[C@H](C)NC(=O)[C@H](CCCCN)NC(=O)[C@H](CCCCN)NC(=O)[C@H](CCC(=O)O)NC(=O)[C@H](CC(C)C)NC(=O)[C@H](Cc1ccc(O)cc1)NC(=O)[C@H](CCCCN)NC(=O)[C@H](CO)NC(=O)[C@H](Cc1ccc(O)cc1)NC(=O)[C@H](CC(=O)O)NC(=O)[C@H](CO)NC(=O)[C@@H](NC(=O)[C@H](Cc1ccccc1)NC(=O)[C@@H](NC(=O)CNC(=O)[C@H](CCC(N)=O)NC(=O)C(C)(C)NC(=O)[C@@H](N)Cc1ccc(O)cc1)[C@@H](C)O)[C@@H](C)O)C(C)C)C(=O)N[C@@H](CO)C(=O)N[C@@H](C)C(N)=O [Compound 22] (HELM PEPTIDE1{Y.[Aib].Q.G.T.F.T.S.D.Y.S.K.Y.L.E.K.K.A.Q.K.E.F.V.E.W.L.L.S.A.[am]}$$$$V2.0)	0.03
CC[C@H](C)[C@H](NC(=O)[C@H](CO)NC(=O)[C@H](Cc1ccc(O)cc1)NC(=O)[C@H](CC(=O)O)NC(=O)[C@H](CO)NC(=O)[C@@H](NC(=O)[C@H](Cc1ccccc1)NC(=O)[C@@H](NC(=O)CNC(=O)[C@H](CCC(N)=O)NC(=O)C(C)(C)NC(=O)[C@@H](N)Cc1ccc(O)cc1)[C@@H](C)O)[C@@H](C)O)C(=O)N[C@@H](Cc1ccc(O)cc1)C(=O)N[C@@H](CC(C)C)C(=O)N[C@@H](CC(=O)O)C(=O)N[C@@H](CCCCN)C(=O)N[C@@H](CCCCNC(=O)COCCOCCNC(=O)COCCOCCNC(=O)CC[C@H](NC(=O)CCCCCCCCCCCCCCCCC(=O)O)C(=O)O)C(=O)N[C@@H](C)C(=O)N[C@@H](CCC(N)=O)C(=O)N[C@@H](CCCNC(=N)N)C(=O)N[C@@H](C)C(=O)N[C@@H](Cc1ccccc1)C(=O)N[C@H](C(=O)N[C@@H](CCC(=O)O)C(=O)N[C@@H](Cc1c[nH]c2ccccc12)C(=O)N[C@@H](CC(C)C)C(=O)N[C@@H](CC(C)C)C(=O)N[C@@H](C)C(=O)N[C@@H](CCC(N)=O)C(=O)NCC(=O)N1CCC[C@H]1C(=O)N[C@@H](CO)C(=O)N[C@@H](CO)C(=O)NCC(=O)N[C@@H](C)C(=O)N1CCC[C@H]1C(=O)N1CCC[C@H]1C(=O)N1CCC[C@H]1C(=O)N[C@@H](CO)C(N)=O)C(C)C [Compound 33] (H-Y[Aib]QGTFTSDYSIYLDKK([AEEA-AEEA-γGlu-C18 diacid])AQRAFVEWLLAQGPSSGAPPPS-NH2)	0.0093
CC[C@H](C)[C@H](NC(=O)[C@H](CO)NC(=O)[C@H](Cc1ccc(O)cc1)NC(=O)[C@H](CC(=O)O)NC(=O)[C@H](CO)NC(=O)[C@@H](NC(=O)[C@H](Cc1ccccc1)NC(=O)[C@@H](NC(=O)CNC(=O)[C@H](CCC(N)=O)NC(=O)C(C)(C)NC(=O)[C@@H](N)Cc1ccc(O)cc1)[C@@H](C)O)[C@@H](C)O)C(=O)N[C@@H](Cc1ccc(O)cc1)C(=O)N[C@@H](CC(C)C)C(=O)N[C@@H](CC(=O)O)C(=O)N[C@@H](CCC(=O)O)C(=O)N[C@@H](CCCCN)C(=O)N[C@@H](C)C(=O)N[C@@H](C)C(=O)N[C@@H](CCCCN)C(=O)N[C@@H](CC(=O)O)C(=O)N[C@@H](Cc1ccccc1)C(=O)N[C@H](C(=O)N[C@@H](CCC(=O)O)C(=O)N[C@@H](Cc1c[nH]c2ccccc12)C(=O)N[C@@H](CC(C)C)C(=O)N[C@@H](CC(C)C)C(=O)N[C@@H](CO)C(=O)N[C@@H](C)C(N)=O)C(C)C [Compound 17] (HELM PEPTIDE1{Y.[Aib].Q.G.T.F.T.S.D.Y.S.I.Y.L.D.E.K.A.A.K.D.F.V.E.W.L.L.S.A.[am]}$$$$V2.0)	0.013
CCCCCCCCCCCCCCCC(=O)N[C@@H](CCC(=O)NCCCC[C@H](NC(=O)[C@H](CCC(=O)O)NC(=O)[C@H](CC(C)C)NC(=O)[C@H](Cc1ccc(O)cc1)NC(=O)[C@@H](NC(=O)[C@H](CO)NC(=O)[C@H](Cc1ccc(O)cc1)NC(=O)[C@H](CC(=O)O)NC(=O)[C@H](CO)NC(=O)[C@@H](NC(=O)[C@H](Cc1ccccc1)NC(=O)[C@@H](NC(=O)CNC(=O)[C@H](CCC(N)=O)NC(=O)C(C)(C)NC(=O)[C@@H](N)Cc1ccc(O)cc1)[C@@H](C)O)[C@@H](C)O)[C@@H](C)CC)C(=O)N[C@@H](CCCCN)C(=O)N[C@@H](C)C(=O)N[C@@H](C)C(=O)N[C@@H](CCCCN)C(=O)N[C@@H](CCC(=O)O)C(=O)N[C@@H](Cc1ccccc1)C(=O)N[C@H](C(=O)N[C@@H](CCC(=O)O)C(=O)N[C@@H](Cc1c[nH]c2ccccc12)C(=O)N[C@@H](CC(C)C)C(=O)N[C@@H](CC(C)C)C(=O)N[C@@H](CO)C(=O)N[C@@H](C)C(N)=O)C(C)C)C(=O)O [Compound 24] (HELM PEPTIDE1{Y.[Aib].Q.G.T.F.T.S.D.Y.S.I.Y.L.E.K.K.A.A.K.E.F.V.E.W.L.L.S.A.[am]}|PEPTIDE2{[CCCCCCCCCCCCCCCC(=O)[*:2]].[gGlu]}$PEPTIDE1,PEPTIDE2,16:R3-2:R2$$$V2.0)	0.11
CCCCCCCCCCCCCCCCCC(=O)N[C@@H](CCC(=O)NCCOCCOCC(=O)NCCOCCOCC(=O)NCCCC[C@H](NC(=O)[C@H](CCCCN)NC(=O)[C@H](CCC(=O)O)NC(=O)[C@H](CC(C)C)NC(=O)[C@H](C)NC(=O)[C@@H](NC(=O)[C@H](CO)NC(=O)[C@H](Cc1ccc(O)cc1)NC(=O)[C@H](CC(=O)O)NC(=O)[C@H](CO)NC(=O)[C@@H](NC(=O)[C@H](Cc1ccccc1)NC(=O)[C@@H](NC(=O)CNC(=O)[C@H](CCC(N)=O)NC(=O)C(C)(C)NC(=O)[C@@H](N)Cc1ccc(O)cc1)[C@@H](C)O)[C@@H](C)O)[C@@H](C)CC)C(=O)N[C@@H](C)C(=O)N[C@@H](CCC(N)=O)C(=O)N[C@@H](CCCNC(=N)N)C(=O)N[C@@H](C)C(=O)N[C@@H](Cc1ccccc1)C(=O)N[C@H](C(=O)N[C@@H](CCC(=O)O)C(=O)N[C@@H](Cc1c[nH]c2ccccc12)C(=O)N[C@@H](CC(C)C)C(=O)N[C@@H](CC(C)C)C(=O)N[C@@H](C)C(=O)N[C@@H](CCC(N)=O)C(=O)N[C@@H](CCCCN)C(N)=O)C(C)C)C(=O)O [Compound 46] (H-Y[Aib]QGTFTSDYSIALEKK([AEEA-AEEA-γGlu-Stearoyl])AQRAFVEWLLAQK-NH2)	0.016
